Data published in the supplement of paper PMC11208160.
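Further: IS621 bridge recombinase in Escherichia coli cells against a fixed T5 target plasmid.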

Assay: recombinant UMI read abundance after kanamycin selection (control-corrected) (log10(CPM+1)); higher = more efficient recombination; extreme values may be limits of the assay; sequences stand for … in AGTGCAGAGAAAATCGGCCAGTTTTCTCTGCCTGCAGTCCGCATGCCGTGGGACCCCTTGGGTTCTAACCTGTTGCCTAGATTTATGCAGCGGACTGCCTTTCTCCCAAAGTGATAAACCGG…AGGTTGGTTTCACT; site = the 11-nt donor
How it was run: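 Pooled Escherichia coli screen of donor and donor-binding-loop pairs for the IS621 bridge recombinase. Each pair sits with a 12-nt UMI on a plasmid carrying a promoterless kanamycin gene. The library was co-electroporated with a target plasmid encoding a fixed target and T7-inducible recombinase, then plated with IPTG (0.07 mM) plus kanamycin, or unselected, each in two replicates. Recombinant UMIs were PCR-amplified across the donor–target junction and sequenced. Counts became CPM, averaged over replicates, scaled by control-derived factors and reported as log10(CPM+1).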
For “GGATGGACATGGACCGGTTTTCCCGGTAATCCGTATTTGCC (site GGATAGACTGG)”, the “recombinant UMI read abundance (log10)” value was 2.17.
In the case of “GGATGGACATGGACCGGTTTTCCCGGTAATCCGTATTTGCC (site GGATCGACTGG)”, the “recombinant UMI read abundance (log10)” value is reported as 0.
For “GGATGGACATGGACCGGTTTTCCCGGTAATCCGTATTTGCC (site GGATGGACTGG)”, the “recombinant UMI read abundance (log10)” value was 2.47.
With “GGATGGACATGGACCGGTTTTCCCGGTAATCCGTATTTGCC (site GGATTGACTGG)” the “recombinant UMI read abundance (log10)” value was 0.
For “GGATGGCCATGGACCGGTTTTCCCGGTAATCCGTATTTGCA (site GAATGGCCTTG)”, the “recombinant UMI read abundance (log10)” value was 0.
For “GGATGGCCATGGACCGGTTTTCCCGGTAATCCGTATTTGCA (site GCATGGCCTTG)”, the “recombinant UMI read abundance (log10)” value was 0.
For “GGATGGCCATGGACCGGTTTTCCCGGTAATCCGTATTTGCA (site GGATGGCCTTG)”, the “recombinant UMI read abundance (log10)” value was 0.0128.
For “GGATGGCCATGGACCGGTTTTCCCGGTAATCCGTATTTGCA (site GTATGGCCTTG)”, the “recombinant UMI read abundance (log10)” value was 0.
In the case of “GGATTCGCATGGACCGGTTTTCCCGGTAATCCGTATTTGCG (site GGATTCGCTCG)”, the “recombinant UMI read abundance (log10)” value is reported as 0.0184.
For “GGATTGACATGGACCGGTTTTCCCGGTAATCCGTATTTGTT (site GGATTGACTAA)”, the “recombinant UMI read abundance (log10)” value was 0.888.
For “GGCAAAACATGGACCGGTTTTCCCGGTAATCCGTATTTGTT (site GGCAAAACTAA)”, the “recombinant UMI read abundance (log10)” value was 0.56.
With “GGCAAGCCATGGACCGGTTTTCCCGGTAATCCGTATTTGAA (site GGCAAACCTTT)” the “recombinant UMI read abundance (log10)” value was 0.
In the case of “GGCAAGCCATGGACCGGTTTTCCCGGTAATCCGTATTTGAA (site GGCAACCCTTT)”, the “recombinant UMI read abundance (log10)” value is reported as 0.
For “GGCAAGCCATGGACCGGTTTTCCCGGTAATCCGTATTTGAA (site GGCAAGCCTTT)”, the “recombinant UMI read abundance (log10)” value was 0.247.
In the case of “GGCAAGCCATGGACCGGTTTTCCCGGTAATCCGTATTTGAA (site GGCAATCCTTT)”, the “recombinant UMI read abundance (log10)” value is reported as 0.
With “GGCAATGCATGGACCGGTTTTCCCGGTAATCCGTATTTGAA (site GGCAATACTTT)” the “recombinant UMI read abundance (log10)” value was 0.
With “GGCAATGCATGGACCGGTTTTCCCGGTAATCCGTATTTGAA (site GGCAATCCTTT)” the “recombinant UMI read abundance (log10)” value was 0.
With “GGCAATGCATGGACCGGTTTTCCCGGTAATCCGTATTTGAA (site GGCAATGCTTT)” the “recombinant UMI read abundance (log10)” value was 1.26.
With “GGCAATGCATGGACCGGTTTTCCCGGTAATCCGTATTTGAA (site GGCAATTCTTT)” the “recombinant UMI read abundance (log10)” value was 0.536.
With “GGCATATCATGGACCGGTTTTCCCGGTAATCCGTATTTGCA (site GGCATATCTTG)” the “recombinant UMI read abundance (log10)” value was 1.57.
In the case of “GGCCACCCATGGACCGGTTTTCCCGGTAATCCGTATTTGTC (site GGCCACCCTAA)”, the “recombinant UMI read abundance (log10)” value is reported as 0.133.
In the case of “GGCCACCCATGGACCGGTTTTCCCGGTAATCCGTATTTGTC (site GGCCACCCTCA)”, the “recombinant UMI read abundance (log10)” value is reported as 0.0127.
For “GGCCACCCATGGACCGGTTTTCCCGGTAATCCGTATTTGTC (site GGCCACCCTGA)”, the “recombinant UMI read abundance (log10)” value was 0.
For “GGCCACCCATGGACCGGTTTTCCCGGTAATCCGTATTTGTC (site GGCCACCCTTA)”, the “recombinant UMI read abundance (log10)” value was 0.0183.
In the case of “GGCCACCCATGGACCGGTTTTCCCGGTAATCCGTATTTGTT (site AGCCACCCTAA)”, the “recombinant UMI read abundance (log10)” value is reported as 0.0306.
For “GGCCACCCATGGACCGGTTTTCCCGGTAATCCGTATTTGTT (site CGCCACCCTAA)”, the “recombinant UMI read abundance (log10)” value was 0.181.
For “GGCCACCCATGGACCGGTTTTCCCGGTAATCCGTATTTGTT (site GACCACCCTAA)”, the “recombinant UMI read abundance (log10)” value was 0.018.
With “GGCCACCCATGGACCGGTTTTCCCGGTAATCCGTATTTGTT (site GCCCACCCTAA)” the “recombinant UMI read abundance (log10)” value was 0.0196.
In the case of “GGCCACCCATGGACCGGTTTTCCCGGTAATCCGTATTTGTT (site GGACACCCTAA)”, the “recombinant UMI read abundance (log10)” value is reported as 0.0221.
For “GGCCACCCATGGACCGGTTTTCCCGGTAATCCGTATTTGTT (site GGCAACCCTAA)”, the “recombinant UMI read abundance (log10)” value was 0.00185.
With “GGCCACCCATGGACCGGTTTTCCCGGTAATCCGTATTTGTT (site GGCCAACCTAA)” the “recombinant UMI read abundance (log10)” value was 0.0287.
For “GGCCACCCATGGACCGGTTTTCCCGGTAATCCGTATTTGTT (site GGCCACACTAA)”, the “recombinant UMI read abundance (log10)” value was 0.0112.
In the case of “GGCCACCCATGGACCGGTTTTCCCGGTAATCCGTATTTGTT (site GGCCACCCTAA)”, the “recombinant UMI read abundance (log10)” value is reported as 0.0168.
In the case of “GGCCACCCATGGACCGGTTTTCCCGGTAATCCGTATTTGTT (site GGCCACCCTAC)”, the “recombinant UMI read abundance (log10)” value is reported as 0.0176.
With “GGCCACCCATGGACCGGTTTTCCCGGTAATCCGTATTTGTT (site GGCCACCCTAG)” the “recombinant UMI read abundance (log10)” value was 0.
For “GGCCACCCATGGACCGGTTTTCCCGGTAATCCGTATTTGTT (site GGCCACCCTAT)”, the “recombinant UMI read abundance (log10)” value was 0.0103.
In the case of “GGCCACCCATGGACCGGTTTTCCCGGTAATCCGTATTTGTT (site GGCCACCCTCA)”, the “recombinant UMI read abundance (log10)” value is reported as 0.
In the case of “GGCCACCCATGGACCGGTTTTCCCGGTAATCCGTATTTGTT (site GGCCACCCTGA)”, the “recombinant UMI read abundance (log10)” value is reported as 0.
With “GGCCACCCATGGACCGGTTTTCCCGGTAATCCGTATTTGTT (site GGCCACCCTTA)” the “recombinant UMI read abundance (log10)” value was 0.00548.
In the case of “GGCCACCCATGGACCGGTTTTCCCGGTAATCCGTATTTGTT (site GGCCACGCTAA)”, the “recombinant UMI read abundance (log10)” value is reported as 0.0127.
In the case of “GGCCACCCATGGACCGGTTTTCCCGGTAATCCGTATTTGTT (site GGCCACTCTAA)”, the “recombinant UMI read abundance (log10)” value is reported as 0.00279.
With “GGCCACCCATGGACCGGTTTTCCCGGTAATCCGTATTTGTT (site GGCCAGCCTAA)” the “recombinant UMI read abundance (log10)” value was 0.
For “GGCCACCCATGGACCGGTTTTCCCGGTAATCCGTATTTGTT (site GGCCATCCTAA)”, the “recombinant UMI read abundance (log10)” value was 0.0127.
For “GGCCACCCATGGACCGGTTTTCCCGGTAATCCGTATTTGTT (site GGCCCCCCTAA)”, the “recombinant UMI read abundance (log10)” value was 0.0711.
For “GGCCACCCATGGACCGGTTTTCCCGGTAATCCGTATTTGTT (site GGCCGCCCTAA)”, the “recombinant UMI read abundance (log10)” value was 0.0085.
In the case of “GGCCACCCATGGACCGGTTTTCCCGGTAATCCGTATTTGTT (site GGCCTCCCTAA)”, the “recombinant UMI read abundance (log10)” value is reported as 0.0064.
With “GGCCACCCATGGACCGGTTTTCCCGGTAATCCGTATTTGTT (site GGCGACCCTAA)” the “recombinant UMI read abundance (log10)” value was 0.0156.
In the case of “GGCCACCCATGGACCGGTTTTCCCGGTAATCCGTATTTGTT (site GGCTACCCTAA)”, the “recombinant UMI read abundance (log10)” value is reported as 0.031.
With “GGCCACCCATGGACCGGTTTTCCCGGTAATCCGTATTTGTT (site GGGCACCCTAA)” the “recombinant UMI read abundance (log10)” value was 0.0781.
In the case of “GGCCACCCATGGACCGGTTTTCCCGGTAATCCGTATTTGTT (site GGTCACCCTAA)”, the “recombinant UMI read abundance (log10)” value is reported as 0.0101.
With “GGCCACCCATGGACCGGTTTTCCCGGTAATCCGTATTTGTT (site GTCCACCCTAA)” the “recombinant UMI read abundance (log10)” value was 0.0225.
With “GGCCACCCATGGACCGGTTTTCCCGGTAATCCGTATTTGTT (site TGCCACCCTAA)” the “recombinant UMI read abundance (log10)” value was 0.0158.
For “GGCCACTCATGGACCGGTTTTCCCGGTAATCCGTATTTGTT (site GGCCACACTAA)”, the “recombinant UMI read abundance (log10)” value was 0.0252.
For “GGCCACTCATGGACCGGTTTTCCCGGTAATCCGTATTTGTT (site GGCCACCCTAA)”, the “recombinant UMI read abundance (log10)” value was 0.00888.
In the case of “GGCCACTCATGGACCGGTTTTCCCGGTAATCCGTATTTGTT (site GGCCACGCTAA)”, the “recombinant UMI read abundance (log10)” value is reported as 0.00402.
With “GGCCACTCATGGACCGGTTTTCCCGGTAATCCGTATTTGTT (site GGCCACTCTAA)” the “recombinant UMI read abundance (log10)” value was 1.33.
With “GGCCAGACATGGACCGGTTTTCCCGGTAATCCGTATTTGAC (site GGCCAGACTGT)” the “recombinant UMI read abundance (log10)” value was 0.867.
